pIC50: −log10 of the molar value.
How the values were obtained:
EPAC1-ΔDEP (aa. 149-881) = molecular target: T1, EPAC1-ΔDEP (aa. 149-881) (Homo sapiens, UniProt O95398); assay: 8-NBD-cAMP competition binding assay, EPAC1-ΔDEP; conditions: eleven-point dose-response 1-100 µM; mean ± SEM
T1 construct: EPAC1-ΔDEP (149-881); GST (N); made in house; host or cells: Escherichia coli BL21 Star (DE3)
T1 sequence (O95398 149-881 isoform O95398-3): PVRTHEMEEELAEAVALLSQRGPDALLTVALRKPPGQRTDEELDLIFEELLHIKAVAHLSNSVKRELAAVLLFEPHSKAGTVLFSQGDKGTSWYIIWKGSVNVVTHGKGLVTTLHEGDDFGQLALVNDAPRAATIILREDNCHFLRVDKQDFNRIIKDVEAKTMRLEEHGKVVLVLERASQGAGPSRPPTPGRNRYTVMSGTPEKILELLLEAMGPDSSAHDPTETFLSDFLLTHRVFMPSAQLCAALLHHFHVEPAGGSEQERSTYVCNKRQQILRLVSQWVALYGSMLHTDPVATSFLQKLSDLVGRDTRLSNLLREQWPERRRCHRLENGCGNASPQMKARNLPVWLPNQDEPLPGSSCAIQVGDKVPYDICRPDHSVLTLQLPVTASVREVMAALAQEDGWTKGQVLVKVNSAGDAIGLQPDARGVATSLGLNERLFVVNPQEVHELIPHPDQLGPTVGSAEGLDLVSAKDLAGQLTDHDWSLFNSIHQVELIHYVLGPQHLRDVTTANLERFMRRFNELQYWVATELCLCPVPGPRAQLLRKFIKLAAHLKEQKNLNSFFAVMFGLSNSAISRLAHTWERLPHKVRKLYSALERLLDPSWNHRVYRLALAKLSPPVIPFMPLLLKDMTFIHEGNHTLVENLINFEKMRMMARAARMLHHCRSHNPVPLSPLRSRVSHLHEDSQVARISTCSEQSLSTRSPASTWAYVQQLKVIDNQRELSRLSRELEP
Description: Recombinant Protein Purification.
8-NBD-cAMP Competition Binding Assay.

PKA = PKA activation (VASP phosphorylation, western blot) in U2OS-EPAC1 cells; type: cell-based; conditions: 100 µM test compound, FIG. 5
Experimental: FIG. 5. PKA activation results of representative newly discovered EPAC1 agonists. U2OS cells stably transfected with EPAC1 were treated with 100 µM of test compounds, cyclic nucleotide EPAC1 agonist 2 or 10 µM of forskolin and rolipram (F/R), cyclic AMP elevating agents, as a positive control. Active, phosphorylated VASP (P-VASP) was visualized using a phospho-specific, anti-VASP antibody. None of the test compounds promoted VASP phosphorylation in cells.
PKA and GPCR Selectivity. To investigate the EPAC selectivity of these EPAC agonists, compounds 25g, 25n and 25q were selected for further PKA activation studies, and the results are shown in FIG. 5. PKA activation was assessed by monitoring phosphorylation state of a downstream PKA effector, vasodilator-stimulated phosphoprotein (VASP).
(§1) SDS-PAGE and Western Blotting. Samples were prepared by mixing equal volumes of cell lysate and 2x SDS sample loading buffer and denaturing for 5 min at 95° C., unless indicated otherwise. Protein samples were separated by SDS-PAGE on 10% (v/v) polyacrylamide gels, for EPAC1 and VASP, or on 12.5% (v/v), for Rap1, and then transferred to nitrocellulose membranes. Membranes were then blocked for 1 h at room temperature in 5% (w/v) non-fat dry milk or 5% (w/v) BSA in Tris-buffered saline containing 0.1% (v/v) Tween 20, followed by an overnight incubation with primary antibody diluted in blocking buffer at 4° C. Subsequently, the membranes were incubated with appropriate horseradish peroxidase-conjugated secondary antibodies for 1 h at room temperature. For signal detection the SuperSignal West Pico PLUS Chemiluminescent Substrate (Thermo Scientific) was used. Images were acquired using the Fusion FX7 camera platform (Vilber). Densitometry was performed with ImageJ.

EPAC1 = molecular target: T2, EPAC1 (Homo sapiens, UniProt O95398); assay: EPAC1 immunoprecipitation with activation-selective antibody in HEK293T cells; type: cell-based; design: expressed in transfected cells; conditions: versus vehicle-treated control, FIG. 10
T2 sequence (O95398 1-923): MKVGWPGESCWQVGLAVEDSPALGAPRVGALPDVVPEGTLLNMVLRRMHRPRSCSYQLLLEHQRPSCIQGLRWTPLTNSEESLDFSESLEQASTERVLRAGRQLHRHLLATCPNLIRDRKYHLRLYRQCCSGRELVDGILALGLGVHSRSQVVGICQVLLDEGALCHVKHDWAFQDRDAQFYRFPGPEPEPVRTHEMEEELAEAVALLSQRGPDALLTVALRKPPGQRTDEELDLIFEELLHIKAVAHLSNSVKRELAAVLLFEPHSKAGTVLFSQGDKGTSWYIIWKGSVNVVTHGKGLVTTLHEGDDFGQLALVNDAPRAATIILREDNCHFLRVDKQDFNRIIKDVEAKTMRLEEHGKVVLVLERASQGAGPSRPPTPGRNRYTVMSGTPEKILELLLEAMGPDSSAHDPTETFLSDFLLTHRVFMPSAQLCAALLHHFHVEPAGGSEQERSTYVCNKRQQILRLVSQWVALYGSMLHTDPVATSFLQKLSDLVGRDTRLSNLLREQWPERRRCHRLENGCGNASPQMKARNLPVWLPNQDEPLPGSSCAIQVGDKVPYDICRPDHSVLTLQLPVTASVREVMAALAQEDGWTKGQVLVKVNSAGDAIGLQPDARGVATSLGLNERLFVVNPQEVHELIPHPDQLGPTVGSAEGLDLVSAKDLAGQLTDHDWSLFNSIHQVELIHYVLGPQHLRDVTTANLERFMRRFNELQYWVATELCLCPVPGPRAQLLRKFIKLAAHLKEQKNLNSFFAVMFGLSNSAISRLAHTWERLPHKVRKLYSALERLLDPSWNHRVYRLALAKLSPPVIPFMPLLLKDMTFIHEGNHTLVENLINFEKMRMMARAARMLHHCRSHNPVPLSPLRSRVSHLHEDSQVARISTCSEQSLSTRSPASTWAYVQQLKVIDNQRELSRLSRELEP
Experimental: FIG. 10. Ability of selected compounds to interact with EPAC1 in cells. HEK293T cells stably transfected with EPAC1 were treated with hit compounds from the screen. EPAC1 was immunoprecipitated from cell lysates using an activation-selective antibody, visualized by western blotting and its levels were quantified densitometrically. Cyclic nucleotide EPAC1 agonist 2 was used as positive control. […] Data from at least three independent experiments are presented in the bar graph as mean ± SEM with significant increases in immunoprecipitated EPAC1 levels in comparison to vehicle-treated control indicated; ^∗∗ p < 0.01, ^∗∗∗ p < 0.001.
as §1

SMILES | pIC50 (EPAC1-ΔDEP (aa. 149-881)) | PKA activation (VASP phosphorylation) (PKA) | EPAC1 immunoprecipitation with activation-selective antibody (EPAC1)
COc1ccc(S(=O)(=O)NC(=O)COc2ccc3ccccc3c2)c(OC)c1 [Compound 25g, N-((2,4-Dimethoxyphenyl)sulfonyl)-2-(naphthalen-2-yloxy)acetamide] | 5.31 | did not induce any PKA activation | significant increases in EPAC1 immunoprecipitation
COc1ccc2ccc(OCC(=O)NS(=O)(=O)c3ccc(N)cc3OC)cc2c1 [Compound 25n, N-((4-Amino-2-methoxyphenyl)sulfonyl)-2-((7-methoxynaphthalen-2-yl)oxy)acetamide] | 6.22 | did not induce any PKA activation | significant increases in EPAC1 immunoprecipitation
COc1ccc2ccc(OCC(=O)NS(=O)(=O)c3ccc4ccccc4c3)cc2c1 [Compound 25q, 2-((7-Methoxynaphthalen-2-yl)oxy)-N-(naphthalen-2-ylsulfonyl)acetamide] | 6.30 | did not induce any PKA activation | significant increases in EPAC1 immunoprecipitation

Reference: patent US20230150929A1, “SELECTIVE NON-CYCLIC NUCLEOTIDE ACTIVATORS FOR THE CAMP SENSOR EPAC1” (The Board of Regents of The University of Texas System, priority 2020, published 2023)
